Test results published in patent US5641793A, “Pyridine compounds which have useful pharmaceutical activity” (Zeneca Limited, priority 1994, dated 1997).

Key:
endothelin receptor = assay: Test B: inhibition of the relaxant response to endothelin-1 in guinea-pig isolated taenia coli; conditions: antagonism of endothelin-1 relaxation, initial test concentration 20 μM
Procedure: The endothelin receptor antagonist activity of compounds of formula I may be assessed in vitro in isolated tissues by their ability to inhibit the relaxant response to endothelin-1 in the guinea-pig isolated taenia coli. Guinea pigs of either sex and weight >250 g are killed by cervical dislocation and the caecum removed and placed in cold oxygenated Krebs solution. Strips of taenia coli are dissected out and approximately 4 cm lengths set up for isotonic recording in a 20 ml organ bath containing oxygenated Krebs solution at 32° C. After a […] equilibration period to allow the tissue to spontaneously develop an increased tone, a cumulative concentration-response curve (relaxation) is constructed to endothelin-1 (0.3-10 nM). The tissue is then washed for a period of at least 90 minutes before construction of a second concentration-response curve to endothelin-1 in the presence of the test compound. The test compound is added to the organ bath (at an initial concentration of 20 μM) at least 30 minutes before constructing the second concentration-response curve to endothelin-1. The endothelin-1 concentration ratio for each experiment is determined by comparing the most parallel portions of the control and drug treated concentration-response curves. From this a pA2 is calculated: pA2 =-log[molar drug concentration]+log[concentration ratio-1].

[1] = system: Human ETA or ETB receptors; assay: Test A: inhibition of [125I]-Endothelin-1 binding to MEL cell membranes expressing recombinant receptor; conditions: inhibition of 30 pM [125I]-Endothelin-1 binding; receptor sub-type (ETA or ETB) not given
Description: The endothelin receptor antagonist activity of compounds of formula I may be assessed in vitro by their ability to inhibit binding of [^125 I]-Endothelin-1 to its receptors. Human ETA or ETB receptors (sub-types of the endothelin receptor) were expressed in Mouse Erythroleukemic Cells (MEL cells) by using standard molecular techniques (for example, as described by Sambrook J., Fritsch E. F. & Maniatis T. (1989) Molecular Cloning: A Laboratory Manual, 2nd Edition, Cold Spring Harbor Press, U.S.A.). cDNA sequences encoding the human ETA and ETB receptor (Hosoda K. et al (1991), FEBS Lett., 287, 23-26 and Sakamoto A. et al, (1991), Biochem. Biophys Res. Comm., 178, 656-663) are subcloned into pBluescript vector followed by insertion into the MEL cell expression vector pEV as described by Needham et al (1992), Nuc. Acids Res., 20, 997-1003. […]
[^125 I]-Endothelin-1 binding to MEL cell membranes was measured in incubation buffer containing 50 mM Tris HCl, 1 mM CaCl2, 0.05% polyoxyethylenesorbitan monolaurate, 0.1% Bovine Serum Albumin (BSA), 0.02% sodium azide pH 7.4 at 30° C. after 180 minutes incubation. […] Nonspecific binding was measured in the presence of 100 nM unlabelled Endothelin-1. […] The filter discs were punched out and counted in a gamma counter. Compounds are tested in triplicate over a range of concentrations and IC50 (or pIC50) values calculated.

Cc1cc(Br)cnc1NS(=O)(=O)c1cccc2c(N(C)C)cccc12 [Example 6, 5-(dimethylamino)-N-(5-bromo-3-methyl-2-pyridyl)-1-naphthalenesulphonamide]
pA2 in test B (endothelin receptor): 6.6 | pIC50 in test A [1]: 6.5
